Results taken from ChEMBL document CHEMBL4354779, “Selective modulation of the cannabinoid type 1 (CB1) receptor as an emerging platform for the treatment of neuropathic pain” (Medchemcomm, 2019).

How the values were obtained:
[1] = Ratio of drug uptake in C57BL/6 mouse brain to plasma at 0.5 to 27 umol/kg, sc measured after 60 mins by protein precipitation based LC-ESI-MS analysis; type: ADME, organism-based; conditions: 1 h
Cannabinoid receptor 2 [2] = molecular target: T1, Cannabinoid receptor 2 (Homo sapiens, UniProt P34972); test: Inhibition of 3H-CP55,940 tracer binding to human CB2 receptor expressed in Sf9 insect cell membranes after 1 hr by scintillation counting method
T1 sequence (P34972 whole entry): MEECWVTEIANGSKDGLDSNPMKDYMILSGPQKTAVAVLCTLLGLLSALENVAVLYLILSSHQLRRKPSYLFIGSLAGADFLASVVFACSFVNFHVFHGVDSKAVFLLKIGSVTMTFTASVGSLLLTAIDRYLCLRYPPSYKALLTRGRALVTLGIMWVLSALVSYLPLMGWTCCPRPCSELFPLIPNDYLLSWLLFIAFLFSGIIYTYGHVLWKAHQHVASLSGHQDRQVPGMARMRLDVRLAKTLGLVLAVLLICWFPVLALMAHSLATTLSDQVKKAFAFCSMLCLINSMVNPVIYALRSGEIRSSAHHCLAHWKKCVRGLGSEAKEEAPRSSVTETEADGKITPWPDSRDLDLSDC

[3] = Ratio of drug uptake in Sprague-Dawley rat brain to plasma at 3 umol/kg, sc measured after 60 mins by protein precipitation based LC-ESI-MS analysis; type: ADME, organism-based; conditions: 1 h
Cannabinoid receptor 1 [4] = molecular target: T2, Cannabinoid receptor 1 (Homo sapiens, UniProt P21554); test: Agonist activity at human CB1 receptor expressed in HEK293 cell membranes after 1 hr by scintillation counting method
T2 sequence (P21554 whole entry): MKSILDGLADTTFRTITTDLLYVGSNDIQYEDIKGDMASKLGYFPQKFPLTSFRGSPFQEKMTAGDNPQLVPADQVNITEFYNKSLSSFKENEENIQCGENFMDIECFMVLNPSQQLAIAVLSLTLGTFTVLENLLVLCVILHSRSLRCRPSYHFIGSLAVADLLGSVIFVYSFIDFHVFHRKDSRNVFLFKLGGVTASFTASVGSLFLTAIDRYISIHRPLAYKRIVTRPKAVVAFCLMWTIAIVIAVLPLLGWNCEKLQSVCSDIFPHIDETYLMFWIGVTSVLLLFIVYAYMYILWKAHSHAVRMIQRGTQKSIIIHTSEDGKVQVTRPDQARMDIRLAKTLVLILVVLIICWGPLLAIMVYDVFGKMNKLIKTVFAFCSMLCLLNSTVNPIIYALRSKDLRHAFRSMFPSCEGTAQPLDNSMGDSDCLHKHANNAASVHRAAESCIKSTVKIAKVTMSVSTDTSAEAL

Cannabinoid receptor 1 [5] = molecular target: T2, Cannabinoid receptor 1; test: Inhibition of 3H-CP55,940 tracer binding to human CB1 receptor expressed in HEK293 cell membranes after 1 hr by scintillation counting method
Rattus norvegicus [6] = test: Antiallodynic activity in Sprague-Dawley rat model of L5/L6 spinal nerve ligation-induced neuropathic pain at 2.5 umol/kg by up-and-down method relative to control; type: functional
[7] = Brain to plasma permeability coefficient, Kp of compound in rat; type: ADME
Cannabinoid receptor 1 [8] = molecular target: T2, Cannabinoid receptor 1; test: Agonist activity at human CB1 receptor
Cannabinoid receptor 2 [9] = molecular target: T1, Cannabinoid receptor 2; test: Agonist activity at human CB2 receptor
Rattus norvegicus [10] = test: Antiallodynic activity in Sprague-Dawley rat model of L5/L6 spinal nerve ligation-induced neuropathic pain at 8 umol/kg by up-and-down method relative to control; type: functional
[11] = Ratio of drug uptake in C57BL/6 mouse brain to plasma at 1 to 16 umol/kg, sc measured after 60 mins by protein precipitation based LC-ESI-MS analysis; type: ADME, organism-based
[12] = Ratio of drug uptake in Sprague-Dawley rat brain to plasma at 1 to 8 umol/kg, sc measured after 60 mins by protein precipitation based LC-ESI-MS analysis; type: ADME, organism-based

CCOc1ccc(Cc2nc3cc(N(C)S(=O)(=O)c4cccs4)ccc3n2CC2CCCCC2)nc1
Ratio [1]: 5% | IC50 (Cannabinoid receptor 2 [2]): 1 nM | Ratio [3]: 7% | EC50 (Cannabinoid receptor 1 [4]): 10 nM | IC50 (Cannabinoid receptor 1 [5]): 3.98 nM | Activity (Rattus norvegicus [6]): 100%

CC(C)(C)c1nc2cc(NS(C)(=O)=O)ccc2n1CC1CCC(F)(F)CC1
Kp [7]: 0.04 | Ki (Cannabinoid receptor 1 [8]): 11.7 nM | Ki (Cannabinoid receptor 2 [9]): 0.871 nM

Cc1c(C(=O)c2cccc3ccccc23)c2cccc3c2n1C[C@H](CN1CCOCC1)O3
Activity (Rattus norvegicus [10]): 100% | Kp at 1 h [11]: 4.2 | Kp at 1 h [12]: 2.2
